Tests used:
[1] = test system: eicosanoids metabolites in the striatum; assay: Oxylipin profiling of striatum from MPTP-treated mice; assay type: in vivo, mouse; conditions: MPTP 10 mg/kg×3 IP, 7 days after injection; mean +/− SEM
Method: Oxylipin profiling. […] Striatum was dissected from brain, and the samples were stored at −80° C. before assay. Measurement of eicosanoids was performed using the previous method (59).

[2] = test system: ER stress, oxidative stress, sEH and α-synuclein proteins in the mouse striatum; assay: Western blot analysis of mouse striatum after MPTP; assay type: in vivo
Method: Western blot analysis of mouse brain samples. Western blot analysis was performed as reported previously (53,56). Mice were killed by cervical dislocation and brains were rapidly removed from the skull, and the striatum of mice were dissected on ice. The tissue samples were homogenized in Laemmli lysis buffer. […] Proteins were transferred onto polyvinylidenedifluoride (PVDF) membranes using a Trans Blot Mini Cell (Bio-Rad). For immunodetection, the blots were blocked with 2% BSA in TBST (TBS+0.1% Tween-20) for 1 h at room temperature (RT), and kept with primary antibodies overnight at 4° C. […] After final three washes with TBST, bands were detected using enhanced chemiluminescence (ECL) plus the Western Blotting Detection system (GE Healthcare Bioscience). Images were captured with a ChemDoc imaging system (Bio-Rad), and the immunoreactive bands were analysis by Image Lab software.

[3] = test system: MPTP-induced neurotoxicity in the striatum and SN; assay: MPTP-induced mouse model of PD: immunohistochemistry of DAT and TH; conditions: MPTP 10, 15, or 20 mg/kg ×3 IP, 2-h intervals; 7 days after injection
[4] = PTZ induced seizure model; Example 52 and FIG. 7 of WO 2015/148954; cited from earlier work
[5] = pH 7.4; cited from earlier work
[6] = test system: MPTP-induced neurotoxicity in the mouse SN; conditions: cited from earlier work
sEH = sEH (Homo sapiens (Human), UniProt P34913); conditions: cited from earlier work
sEH, sequence (P34913 whole entry): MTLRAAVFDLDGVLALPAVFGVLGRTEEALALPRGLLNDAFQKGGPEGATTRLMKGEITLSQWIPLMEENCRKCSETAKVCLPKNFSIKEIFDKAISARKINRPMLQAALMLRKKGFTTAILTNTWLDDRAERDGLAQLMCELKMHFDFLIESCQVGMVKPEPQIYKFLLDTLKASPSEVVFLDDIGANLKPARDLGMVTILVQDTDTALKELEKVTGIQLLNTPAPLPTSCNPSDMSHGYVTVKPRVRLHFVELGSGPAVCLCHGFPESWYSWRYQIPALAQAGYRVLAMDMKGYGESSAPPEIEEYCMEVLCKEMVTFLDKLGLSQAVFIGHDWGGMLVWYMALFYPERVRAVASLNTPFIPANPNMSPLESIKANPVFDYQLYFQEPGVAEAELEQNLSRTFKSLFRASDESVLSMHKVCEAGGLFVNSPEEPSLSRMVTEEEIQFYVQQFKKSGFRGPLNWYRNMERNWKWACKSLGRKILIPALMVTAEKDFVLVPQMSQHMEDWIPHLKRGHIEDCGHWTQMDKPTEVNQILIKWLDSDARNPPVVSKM

For `CN1CC=C(c2ccccc2)CC1` [MPTP, 1-methyl-4-phenyl-1,2,3,6-tetrahydropyridine], which “Level of 5(6)-EpETrE in the striatum” value [1] is on record?
Its value is 544.908 ± 19.111.

What about the “Level of 6-keto-PGF1a in the striatum” value [1] of the same molecule?
The value was 20.015 ± 1.352.

And the “Level of 8(9)-EpETrE in the striatum” value [1]?
The value was 19.048 ± 1.310.

What about the “Level of 9(10)-EpOME in the striatum” value [1] of the same molecule?
Its value is 6.641 ± 0.431.

And the “Level of 9,10,13-TriHOME in the striatum” value [1]?
The value was 33.635 ± 2.452.

And the “Level of 9,10-DiHOME in the striatum” value [1]?
Its value is 1.346 ± 0.158.

And the “Level of 9,12,13-TriHOME in the striatum” value [1]?
Its value is 59.487 ± 4.168.

And the “Level of 9-HODE in the striatum” value [1]?
The value was 41.360 ± 3.045.

What about the “Level of 9-oxo-ODE in the striatum” value [1] of the same molecule?
The value was 46.977 ± 5.160.

And the “Level of 10(11)-EpDPE in the striatum” value [1]?
Its value is 9.530 ± 0.829.

What about the “Level of 11(12)-EpETrE in the striatum” value [1] of the same molecule?
Its value is 61.583 ± 4.605.

What about the “Level of 11-HETE in the striatum” value [1] of the same molecule?
Its value is 114.056 ± 5.188.

What about the “Level of 12(13)-EpOME in the striatum” value [1] of the same molecule?
Its value is 7.073 ± 0.689.

And the “Level of 12,13-DIHOME in the striatum” value [1]?
Its value is 8.348 ± 1.710.

What about the “Level of 12-HETE in the striatum” value [1] of the same molecule?
Its value is 136.621 ± 26.845.

And the “Level of 13-HODE in the striatum” value [1]?
Its value is 58.399 ± 5.240.

What about the “Level of 14(15)-EpETrE in the striatum” value [1] of the same molecule?
Its value is 77.976 ± 11.479.

And the “Level of 15,16-DiHODE in the striatum” value [1]?
Its value is 3.667 ± 0.609.

What about the “Level of 15-HETE in the striatum” value [1] of the same molecule?
Its value is 129.113 ± 6.703.

What about the “Level of 19,20-DiHDPE in the striatum” value [1] of the same molecule?
The value was 5.310 ± 0.523.

What about the “Level of EKODE in the striatum” value [1] of the same molecule?
The value was 23.007 ± 4.170.

What about the “Level of PGD2 in the striatum” value [1] of the same molecule?
Its value is 127.452 ± 4.968.

What about the “Level of PGE2 in the striatum” value [1] of the same molecule?
Its value is 13.830 ± 1.069.

What about the “Level of PGF2a in the striatum” value [1] of the same molecule?
The value was 160.704 ± 7.212.

And the “Level of TXB2 in the striatum” value [1]?
The value was 98.406 ± 4.740.

What about the “phosphorylated α-synuclein/α-synuclein ratio in the striatum compared with control mice” value ([2]; MPTP 10 mg/kg×3) of the same molecule?
Its value is “significant increase”.

And the “expression of GSH, iNOS, and SOD in the striatum” value ([2]; MPTP 10 mg/kg×3, 7 days after injection)?
The value was “alterations”.

And the “sEH protein in the striatum compared with control mice” value ([2]; MPTP 10 mg/kg×3, three or 7 days after injections)?
The value was “significant increase”.

What about the “DAT and TH density in the striatum and TH-positive cell number in the SN compared with control mice” value [3] of the same molecule?
Its value is “significant reductions”.

Which “crossing of the blood-brain barrier” value [4] does the source give for `O=C(Nc1ccc(OC(F)(F)F)c(F)c1)NC1CCN(C(=O)C2CCOCC2)CC1` [Compound 29, 1-(3-fluoro-4-(trifluoromethoxy)phenyl)-3-(1-(tetrahydro-2H-pyran-4-carbo-nyl)piperidin-4-yl)urea] here?
Its value is “cross the blood-brain barrier”.

With `CC[C@H](C)C(=O)N1CCC(NC(=O)Nc2ccc(OC(F)(F)F)c(F)c2)CC1` [compound 26] as the molecule, how does the “w.s. (water solubility)” value [5] read?
Its value is 1 µM.

With `O=C(O)CCCCCCCCCCCNC(=O)NC12CC3CC(CC(C3)C1)C2` [AUDA, 12-(3-Adamantan-1-yl-ureido)dodecanoic acid] as the molecule, how does the “MPTP-induced neurotoxicity, posttreatment” value ([6]; posttreatment) read?
Its value is “did not attenuate”.

What about the “MPTP-induced loss of TH-positive cells in the mouse SN, pretreatment” value ([6]; pretreatment) of the same molecule?
The value was “attenuated”.

With `CCCCCCCCCCCCNC(=O)NC12CC3CC(CC(C3)C1)C2` [ADU, N-Adamantyl-N′-dodecyl urea] as the molecule, how does the “activity on sEH” value (sEH) read?
Its value is “particularly high activity”.

— patent publication US12251379B2, “Methods of inhibiting formation of alpha synuclein aggregates” (THE REGENTS OF THE UNIVERSITY OF CALIFORNIA, priority 2018, dated 2025)
